Test system: C57BL/6 (female) mice
Test: Assessment of hair growth-promoting effect on androgen-induced telogen in C57BL/6 mice
Type: in vivo, mouse
Settings: DHT 2 mg/mL, 100 μL subcutaneously every other day, casein-containing feed, Day 14, vs no DHT
Description: C57BL/6 (female) mice available from Charles River Laboratories Japan, Inc. were used for the test. The animals were randomly divided into test groups so that the mean body weight was approximately equal between groups. The mice were housed three per cage at room temperature (25° C.) under a 12-hour light-dark cycle.
The mice at six weeks old purchased from the vendor were preliminarily bred for one week for acclimation to the test environment. A commercially available hair removal cream was applied to the dorsal region of the mice at an age of seven weeks old to remove the hair.
Until the start of the test, the mice were fed with free access to a solid CRF-1 feed (Oriental Yeast Co., Ltd.) and tap water as drinking water.
The hair of the 7-week-old C57BL/6 mice was in the telogen phase of the hair cycle, but due to the stimulation of hair removal, the hair gradually entered into the anagen phase. This transition in the hair cycle was hampered by administration of an androgen after the hair removal. […] From two days after the hair removal, the mixed feeds indicated in Table 5 were given with free access thereto.
On the final observation day (Day 14 of administration), the mice in the test and control groups were anesthetized and fixed on a photography table, and the hair removal region was photographed.

C[C@]12CCC(=O)C[C@@H]1CC[C@@H]1[C@@H]2CC[C@]2(C)[C@@H](O)CC[C@@H]12 [DHT, dihydrotestosterone]
Blackening of the dorsal skin after hair removal: inhibited

From patent US10154684B2, “Hair regrowth and growth promoter and use thereof” (PHARMA FOODS INTERNATIONAL CO., LTD., priority 2014, dated 2018)
